Measured values from patent US4814353A, “Therapeutic and prophylactic agent for gastritis” (Eisai Co., Ltd., priority 1985, dated 1989).

Key:
[1] = Solubility; type: physicochemical
[2] = Acute toxicity test, rat (SD); conditions: in vivo
Source text: (§1) |Acute Toxicity LD50 (mg/μg)

[3] = Clinical instances, acute animus state/stage of chronic gastritis, peroral teprenone (symptoms, endoscopy, side effects); type: in vivo, human; conditions: 150 mg per day perorally
Source text: (§2) Specific clinical instances will be illustrated to substantiate the effect of the present invention. In the clinical instances, "teprenone" refers to a compound according to the present invention (teprenone is 6,10,14,18-tetramethyl-;b 5,9,13,17-nonadecatetraen-2-one with n=4 in the general formula (I)).
person: acute animus state of chronic gastritis
The conditions of the patient before administration were as follows.
The patient complained of subjective symptoms including severe pyrosis, eructation, and slight nausea and emesis. Lesion of mucosa ventriculi was endoscopically recognized in the curvature ventriculi major of the vestibulum.
(§3) 150 mg per day of teprenone, which is the compound according to the present invention, was perorally administered to the patient.
(§4) person: acute animus stage of chronic gastritis
The conditions of the patient before administration were as follows. The patient complained of medium epigastralgia, slight abdominal oppression, gastric dysphoria, and anorexia. Lesion of tunica mucosa ventriculi was endoscopically recognized in the curvatura ventriculi minor of the angularis and the curvatura ventriculi minor of the corpus ventriculi.
as §4
The subjective symptoms included epigastralgia, pyrosis, abdominal oppression, gastric dysphoria, and eructation. The levels of them were all medium.
Endoscopically, lesion was recognized in the vestibulum (paries anterior ventriculi, curvatura ventriculi minor, paries posterior ventriculi).

[4] = Acute toxicity test, dog (beagle); conditions: in vivo, po, male, peroral
Source text: as §1

[5] = Clinical instances, acute gastritis, peroral teprenone (symptoms, endoscopy, side effects); type: in vivo, human; conditions: 150 mg per day perorally; for subjective symptoms: acute gastritis, 3 days after administration; for endoscopy, lesion of tunica mucosa ventriculi: 5 days after administration
Source text: as §2
person: actute gastritis
The instance is concerned with a person who visited a hospital while mainly complaining of epigastralgia.
The subjective symptoms included not only severe epigastralgia but also medium nausea, emesis, anorexia, slight pyrosis, abdominal flatulence, abdominal oppression, gastric dysphoria, and eructation.
150 mg per day of teprenone, which is a compound according to the present invention, was perorally administered to the patient.
person: acute gastritis
The conditions of te patient before administration were as follows.
The subjective symptoms included severe epigastralgia, anorexia, medium pyrosis, nausea, emesis, abdominal flatulence, gastric dysphoria, slight abdominal oppression, and eructation.
In endoscopy before administration, lesion of tunica mucosa ventriculi was recognized in the vestibulum (paries anterior venticuli, curvatura ventriculi minor, paries posterior ventriculi) and angularis (paries anterior ventriculi, curvatura ventriculi minor, paries posterior ventriculi).
as §3

[6] = Acute toxicity test, mouse (ICR); conditions: in vivo
Source text: as §1

[7] = Clinical Instance 5, after two weeks

CC(=O)CCC=C(C)CCC=C(C)CCC=C(C)CCC=C(C)C (mixture of isomers) [3:2 mixture of (5E,9E,13E)-6,10,14,18-tetramethyl-5,9,13,17-nonadecatetraen-2-one and (5Z,9E,13E)-6,10,14,18-tetramethyl-5,9,13,17-nonadecatetraen-2-one]
solubility in organic solvents ([1]; organic solvents): soluble in organic solvents | solubility in water ([1]; water): hardly soluble in water

CC(=O)CCC=C(C)CCC=C(C)CCC=C(C)CCC=C(C)C [teprenone, 6,10,14,18-tetramethyl-5,9,13,17-nonadecatetraen-2-one]
LD50 ([2]; im, female, intramuscular): > 5000 mg/kg | LD50 ([2]; im, male, intramuscular): > 5000 mg/kg | LD50 ([2]; ip, female, intraperitoneal): 3500 to 5000 mg/kg | LD50 ([2]; ip, male, intraperitoneal): > 5000 mg/kg | LD50 ([2]; po, female, peroral): > 15000 mg/kg | LD50 ([2]; po, male, peroral): > 15000 mg/kg | LD50 ([2]; sc, female, subcutaneous): > 10000 mg/kg | LD50 ([2]; sc, male, subcutaneous): > 10000 mg/kg | subjective symptoms ([3]; Clinical Instance 2, person, chronic gastritis, 3 days after administration): all the symptoms disappeared | side effects, including observation of clinical inspection ([3]; Clinical Instance 2): No side effects were recognized altogether | endoscopy, lesion of tunica mucosa ventriculi ([3]; Clinical Instance 2, 16 days after administration): disappearance of the lesion of tunica mucosa ventriculi was recognized | subjective symptoms ([3]; Clinical Instance 4, person, chronic gastritis, 3 days after administration): substantially all the symptoms disappeared except that slight epigastralgia remained | side effects, including observation of clinical inspection ([3]; Clinical Instance 4): No side effects were recognized altogether | epigastralgia ([3]; Clinical Instance 4, 5 days after administration): the epigastralgia also disappeared | endoscopy, lesion of tunica mucosa ventriculi ([3]; Clinical Instance 4, 14 days after administration): disappearance of the lesion of tunica mucosa ventriculi was recognized | subjective symptoms ([3]; Clinical Instance 5, person, chronic gastritis, 3 days after administration): the abdominal oppression, the gastric dysphoria, and the eructation were mitigated, but the epigastralgia and the pyrosis remained unchanged | side effects ([3]; Clinical Instance 5): No side effects were regonized | subjective symptoms ([3]; Clinical Instance 5, a week after administration): all the symptoms disappeared except for slight eructation | endoscopy, lesion of tunica mucosa ventriculi [3, 7]: the lesion of tunica mucosa ventriculi disappeared in all parts | eructation [3, 7]: The eructation remained | LD50 [4]: > 1000 mg/kg | subjective symptoms ([5]; Clinical Instance 1, person): all the symptons disappeared | observation of clinical inspection ([5]; Clinical Instance 1): no abnormality was recognized | side effects ([5]; Clinical Instance 1): no side effect altogether | endoscopy, lesion of tunica mucosa ventriculi ([5]; Clinical Instance 1): disappearance of the lesion of the tunica mucosa ventriculi was recognized | subjective symptoms ([5]; Clinical Instance 3, person): all the symptoms disappeared | observation of clinical inspection ([5]; Clinical Instance 3): no lesion was recognized | side effects ([5]; Clinical Instance 3): no side effects altogether | endoscopy, lesion of tunica mucosa ventriculi ([5]; Clinical Instance 3): disappearance of the lesion of tunica mucosa ventriculi was recognized | LD50 ([6]; im, female, intramuscular): > 5000 mg/kg | LD50 ([6]; im, male, intramuscular): > 5000 mg/kg | LD50 ([6]; ip, female, intraperitoneal): 3850 mg/kg | LD50 ([6]; ip, male, intraperitoneal): 3750 mg/kg | LD50 ([6]; po, female, peroral): > 15000 mg/kg | LD50 ([6]; po, male, peroral): > 15000 mg/kg | LD50 ([6]; sc, female, subcutaneous): > 10000 mg/kg | LD50 ([6]; sc, male, subcutaneous): > 10000 mg/kg
